Data: patent US4656158A, “Peptide, and production and use thereof” (Suntory Limited, priority 1984, dated 1987)

Key:
solubility in solvents = format: physicochemical
[1] = repeated administration: immunogenicity and toxicity; format: in vivo

For `CC[C@H](C)[C@@H]1NC(=O)[C@H](CCCNC(=N)N)NC(=O)[C@H](CC(=O)O)NC(=O)[C@H](CCSC)NC(=O)[C@H](CCCNC(=N)N)NC(=O)CNC(=O)CNC(=O)[C@H](Cc2ccccc2)NC(=O)[C@@H](NC(=O)[C@H](CO)NC(=O)[C@H](CO)NC(=O)[C@H](CCCNC(=N)N)NC(=O)[C@H](CCCNC(=N)N)NC(=O)[C@H](CC(C)C)NC(=O)[C@@H](N)CO)CSSC[C@@H](C(=O)N[C@@H](CC(N)=O)C(=O)N[C@@H](CO)C(=O)N[C@@H](Cc2ccccc2)C(=O)N[C@@H](CCCNC(=N)N)C(=O)N[C@@H](Cc2ccc(O)cc2)C(=O)O)NC(=O)CNC(=O)[C@H](CC(C)C)NC(=O)CNC(=O)[C@H](CO)NC(=O)[C@H](CCC(N)=O)NC(=O)[C@H](C)NC(=O)CNC(=O)[C@H]([C@@H](C)CC)NC(=O)[C@H](CCCNC(=N)N)NC(=O)[C@H](CC(=O)O)NC(=O)[C@H](CCSC)NC(=O)[C@H](CCCNC(=N)N)NC(=O)CNC(=O)CNC(=O)[C@H](Cc2ccccc2)NC(=O)[C@@H](NC(=O)[C@H](CO)NC(=O)[C@H](CO)NC(=O)[C@H](CCCNC(=N)N)NC(=O)[C@H](CCCNC(=N)N)NC(=O)[C@H](CC(C)C)NC(=O)[C@@H](N)CO)CSSC[C@@H](C(=O)N[C@@H](CC(N)=O)C(=O)N[C@@H](CO)C(=O)N[C@@H](Cc2ccccc2)C(=O)N[C@@H](CCCNC(=N)N)C(=O)N[C@@H](Cc2ccc(O)cc2)C(=O)O)NC(=O)CNC(=O)[C@H](CC(C)C)NC(=O)CNC(=O)[C@H](CO)NC(=O)[C@H](CCC(N)=O)NC(=O)[C@H](C)NC(=O)CNC1=O` [β-hANP, β-human atrial natriuretic polypeptide], the “solubility in organic solvents” value (solubility in solvents; ethyl acetate, butyl acetate, ethyl ether, hexane, petroleum ether, benzene, chloroform) was “insoluble”, the “solubility in methanol and acetic acid” value (solubility in solvents; methanol, acetic acid) was “partially” and the solubility in water (solubility in solvents; water) was “soluble”. The toxicity ([1]; gradually hydrolized in a body to L-amino acids) was “little toxicity”, the anaphylaxis shock ([1]; repeated administration) was “does not cause anaphylaxis shock” and the production of antibodies ([1]; repeated administration) was “does not stimulate production of antibodies”.
